Source: patent EP0102213A1, “Ethanolamine derivatives, pharmaceutical compositions containing them, and processes for preparing them” (BEECHAM GROUP PLC, priority 1982, dated 1984)
pEC50: −log10 of the molar value. Counter-ions that a name gives are not always drawn.

Tests used:
left atrium = experiment: Cardiac activity: tension of the electrically paced isolated left atrium; design: species or system Sprague-Dawley male rats; conditions: rat left atrium; for Emax: intrinsic activity: maximal effect relative to isoprenaline maximum (isoprenaline = 1), read-out: Tension i.a.; for pEC50: electrically paced, Krebs solution 32°C, concentration producing 50% of the compound's own maximum response
Description: (§1) Sprague-Dawley male rats (300-400 g) are killed and the right and left atria dissected out independently and mounted on a combined tissue holder/ electrode. The tissues are then immersed in a glass bath containing Krebs solution maintained at 32°C. The rate of the spontaneously beating right atrium (via an isometric transducer and a ratemeter) and the tension of the electrically paced left atrium (via an isometric transducer) are recorded on an Ml9 chart recorder.
(§2) After an initial stabilization period, the tissues are exposed to a maximal concentration of isoprenaline (10-^7M). The tissues are then washed several times until rate and tension return to baseline level. A dose-response curve to the test compound is then carried out.
(§3) Responses to each concentration of test compound are expressed as a percentage of the maximal responses to isoprenaline. Results are given in the form of (a) intrinsic activity (i.a.) (maximal effect of test compound with respect to isoprenaline maximum, i.e. isoprenaline intrinsic activity = 1) and (b) EC50 (the molar concentration at which the test compound produces 50% of its own maximum response).

Female CFLP mice = experiment: Hypoglycaemic activity: blood glucose after subcutaneous glucose load in fasted mice; assay type: in vivo; conditions: 24 h fasted female CFLP mice, glucose 1 g/Kg s.c. 30 min after dosing, 2 hour AUC versus water controls
Description: Female CFLP mice, weighing approximately 25 g, were fasted for 24 hours prior to the study. The compounds under study were administered orally as an aqueous solution to each of 6 mice. 30 minutes later a blood sample (10 ul) was obtained from the tail for the analysis of blood glucose. Immediately after taking this blood sample, glucose (lg/Kg body weight) was administered subcutaneously to each mouse. 6 mice were given water as a control. Blood samples were then obtained from each mouse at 30 minute intervals for 120 minutes.
Compounds that produced a significant (P<0.05) reduction of blood glucose, compared with control mice given water, at any time interval, were considered active. The area under the blood glucose curve over the 2 hour period after the administration of the glucose was calculated for each compound and compared with the value for control animals.

right atrium = experiment: Cardiac activity: rate of the spontaneously beating isolated right atrium; design: species or system Sprague-Dawley male rats; conditions: rat right atrium; for Emax: intrinsic activity: maximal effect relative to isoprenaline maximum (isoprenaline = 1), read-out: Rate i.a.; for pEC50: Krebs solution 32°C, concentration producing 50% of the compound's own maximum response
Description: as §1, §2, §3

genetically obese mice = experiment: Anti-obesity activity: carcass lipid after daily oral gavage for 28 days; assay type: in vivo; conditions: carcass composition
Description: The compounds were administered by oral gavage in water or carboxymethyl-cellulose suspension to genetically obese mice daily for 28 days. At the end of the time the carcass composition was determined.

[1] = 13.4 mg/kg p.o. daily for 28 days

| Compound | Emax (left atrium) | % Reduction in area under Blood Glucose Curve (Female CFLP mice; 2.5 μmol/Kg orally) | Emax (right atrium) | pEC50 (left atrium) | pEC50 (right atrium) | g LIPID/MOUSE TREATED (genetically obese mice; [1]) | g LIPID/MOUSE TREATED (genetically obese mice; 11.9 mg/kg p.o. daily for 28 days) | % Reduction in area under Blood Glucose Curve (Female CFLP mice; 12.5 μmol/Kg orally) |
| --- | --- | --- | --- | --- | --- | --- | --- | --- |
| CC(Cc1ccc(OCCN2CCN(Cc3ccccc3)CC2)cc1)NCC(O)c1cccc(C(F)(F)F)c1 (centres unmarked) [Example 1, N-[2-(4-(2-(1-(4-Benzyl)piperazinyl)ethoxy)henyl)-1-methylethyl]-2-hydroxy-2-(3-trifluoromethylphenyl)ethanamine trihydrochloride] | 0% | 38% | 0% |  |  |  |  |  |
| CC(Cc1ccc(OCCN2CCN(c3ccccc3)CC2)cc1)NCC(O)c1cccc(C(F)(F)F)c1 (centres unmarked) [Example 2, N-[2-(4-(2-(1-(4-Phenyl)piperazinyl)ethoxy)phenyl)-1-methylethyl]-2-hydroxy-2-(3-trifluoromethylphenyl)ethan-amine trihydrobromide] | 0% | 64% |  |  |  |  |  |  |
| Br.Br.Br.CC(Cc1ccc(OCCN2CCNCC2)cc1)NCC(O)c1cccc(C(F)(F)F)c1 (centres unmarked) [Example 3, N-[2-(4-(2-(1-Piperazinyl)ethoxy)phenyl)-1-methylethyl]-2-hydroxy-2-(3-trifluoromethylphenyl)ethanamine trihydrobromide] |  | 20% |  |  |  |  |  |  |
| CC(Cc1ccc(OCCN2CCN(c3ccccc3)CC2)cc1)NCC(O)c1ccccc1 (centres unmarked) [Example 5, N-[2-(4-(2-(1-(4-Phenyl)piperazinyl)ethoxy)phenyl)-1-methylethyl]-2-hydroxy-2-phenylethanamine trihydrochloride] | 67% |  | 42% | 4.92 | 6.27 |  |  |  |
| CC(Cc1ccc(OCCN2CCN(c3ccccc3)CC2)cc1)NCC(O)c1ccccc1F (centres unmarked) [Example 6, N-[2-(4-(2-(1-(4-Phenyl)piperazinyl)ethox)phenyl)-1-methylethyl]-2-hydroxy-2-(2-fluorophenyl)ethanamine trihydrochloride] | 28% |  | 44% | 4.85 | 6.46 |  |  |  |
| CC(Cc1ccc(OCCN2CCN(c3ccccc3)CC2)cc1)NCC(O)c1cccc(Cl)c1F (centres unmarked) [Example 7, N-[2-(4-(2-(1-(4-Phenyl)piperazinyl)ethoxy)phenyl)-1-methylethyl]-2-hydroxy-2-(2-fluoro-3-chlorophenyl)ethanamine trihydrochloride] | 0% |  | 35% |  | 6.77 |  |  |  |
| CC(Cc1ccc(OCCN2CCN(c3cccc(Cl)c3)CC2)cc1)NCC(O)c1cccc(C(F)(F)F)c1 (centres unmarked) [Example 8, N-[2-(4-(2-(1-(4-(3-Chlorophenyl))piperazinyl)ethoxy)-phenyl)-1-methylethyl]-2-hydroxy-2-(3-trifluoromethylphenyl)ethanamine trihydrochloride] |  |  |  |  |  | 18.06 g |  |  |
| CC(Cc1ccc(OCCN2CCN(c3ccc(Cl)cc3)CC2)cc1)NCC(O)c1cccc(C(F)(F)F)c1 (centres unmarked) [Example 10, N-[2-(4-(2-(1-(4-(4-Chlorophenyl))piperazinyl)ethoxy)-phenyl)-1-methylethyl]-2-hydroxy-2-(3-trifluoromethylphenyl)ethanamine trihydrochloride] | 100% |  | 86% | 4.57 | 4.70 |  |  |  |
| CC(Cc1ccc(OCCN2CCN(c3cccc(C(F)(F)F)c3)CC2)cc1)NCC(O)c1cccc(Cl)c1 (centres unmarked) [Example 13, N-[2-(4-(2-(1-(4-(3-Trifluoromethylphenyl))piperazinyl)-ethoxy)phenyl)-1-methylethyl]-2-hydroxy-2-(3-chlorophenyl) ethanamine trihydrochloride] | 33% |  | 7% | 4.35 | 7.46 | 16.40 g |  |  |
| CC(Cc1ccc(OCCN2CCN(C)CC2)cc1)NCC(O)c1cccc(C(F)(F)F)c1 (centres unmarked) [Example 14, N-[2-(4-(2-(1-(4-Methyl)piperazinyl)ethoxy)henyl)-1-methylethyl]-2-hydroxy-2-(3-trifluoromethylphenyl) ethanamine trihydrochloride, monohydrate] | 0% |  | 4% |  | 5.77 |  | 18.26 g |  |
| COC(CNC(C)Cc1ccc(OCCN2CCN(c3ccccc3)CC2)cc1)c1cccc(Cl)c1 (centres unmarked) [Example 15, N-[2-(4-(2-(1-(4-Phenyl)piperazinyl)ethoxy)phenyl)-1-methylethyl]-2-methoxy-2-(3-chlorophenyl)ethanamine trihydrochloride] |  |  |  |  |  |  |  | 47% |
